Values of other authors, collected in patent US4318905A, “Nonapeptide and decapeptide agonists of luteinizing hormone releasing hormone containing heterocyclic amino acid residues” (Syntex (U.S.A.) Inc., priority 1980, dated 1982).

Settings: Gly in the 6-position replaced by a D-amino acid

| Substance | activity relative to LH-RH |
| --- | --- |
| [D-Ala^6 ]LHRH | increased activity |
| [D-Phe^6 ]LHRH | increased activity |
| [D-Trp^6 ]LHRH | increased activity |
